Experimental data reported in US20170143603A1, “PROCESS FOR SEMI-PERMANENT STRAIGHTENING OF CURLY, FRIZZY OR WAVY HAIR” (KAO CORPORATION, priority 2010, published 2017).

Assay: Hair straightening treatment, assessment in words of hair look and permanence
Design: species or system human
Procedure: Tests consisted in dissolving 10 grams of glyoxylic acid in 100 milliliters of water.
In particular, hair was washed with basic pH (7.5-8.5) shampoo, then said glyoxylic acid solution was applied (application can be made with hard bristle brush, spray or in any other way).
Hair was left in contact with the substance for 60 minute time (+/−30 minutes) and then dried with the hairdryer.
Once dried, hair was straightened with hair straightening iron heated at average temperature of approximately 200°C., +/−50° C.
Finally, hair was rinsed again with water or washed again with shampoo and dried.
Each substance was tested in a mixture with such glyoxylic acid solution by adding 10 grams of one of the substances listed in table 2 to 100 milliliters of said solution.
In particular, a hair straightening test was carried out using the formulation of a cosmetic product by INOAR Cosmeticos Ltda of San Paulo, Brazil, known as “Tratamento capillar marroquino”. The product was deprived of its active ingredient for hair straightening.
10 grams of glyoxylic acid were added to 100 milliliters of said cosmetic and, after carrying out the same hair treatment operations illustrated in the foregoing pages, the results were identical to the ones achieved using the same percentage ratio of glyoxylic acid in water.

## O=CC(=O)O [glyoxylic acid, Glyoxylic acid]
10 grams of glyoxylic acid in 100 milliliters of cosmetic “Tratamento capillar marroquino” deprived of its active ingredient
  hair condition at the end of treatment: permanently shiny, straight, volumeless, and soft to touch
10 grams of glyoxylic acid in 100 milliliters of water, 60 minute contact, iron approximately 200°C.
  hair condition at the end of treatment: shiny, straight, volumeless, soft to touch, and especially pleasant
washings, rinsings and dryings in normal use conditions of hair shampoo
  efficacy of treatment maintained over time: at least six washings, rinsings and dryings
Within the process of the invention
  result compared with the other buffering agents of the European list: best results
